Experimental data as given in patent publication US8759361B2, “2-phenoxy pyrimidinone analogues” (Neurogen Corporation, priority 2006, dated 2014).
pIC50: −log10 of the molar value. Read-outs that look alike come from different tables or passages of the source.

Biological target: T1, human capsaicin receptor (Homo sapiens, UniProt Q8NER1)
T1 construct: expressed in transfected cells
Assay: Calcium mobilization assay, determination of antagonist activity (Example 6)
Format: cell-based
Details: cells expressing human capsaicin receptor, capsaicin-induced fluorescence response
Protocol: A cDNA encoding full length human capsaicin receptor (SEQ ID NO:1, 2 or 3 of U.S. Pat. No. 6,482,611) is subcloned in the plasmid pBK-CMV (Stratagene, La Jolla, Calif.) for recombinant expression in mammalian cells.
Human embryonic kidney (HEK293) cells are transfected with the pBK-CMV expression construct encoding the full length human capsaicin receptor using standard methods. The transfected cells are selected for two weeks in media containing G418 (400 μg/ml) to obtain a pool of stably transfected cells. Independent clones are isolated from this pool by limiting dilution to obtain clonal stable cell lines for use in subsequent experiments.
Cells transfected with expression plasmids (as described in Example 4) and thereby expressing human capsaicin receptor are seeded and grown to 70-90% confluency in FALCON black-walled, clear-bottomed 96-well plates (#3904, BECTON-DICKINSON, Franklin Lakes, N.J.). The culture medium is emptied from the 96 well plates and FLUO-3 AM calcium sensitive dye (Molecular Probes, Eugene, Oreg.) is added to each well (dye solution: 1 mg FLUO-3 AM, 440 μL DMSO and 440 μl 20% pluronic acid in DMSO, diluted 1:250 in Krebs-Ringer HEPES (KRH) buffer (25 mM HEPES, 5 mM KCl, 0.96 mM NaH2PO4, 1 mM MgSO4, 2 mM CaCl2, 5 mM glucose, 1 mM probenecid, pH 7.4), 50 μl diluted solution per well). Plates are covered with aluminum foil and incubated at 37° C. for 1-2 hours in an environment containing 5% CO2. After the incubation, the dye is emptied from the plates, and the cells are washed once with KRH buffer, and resuspended in KRH buffer.
To measure the ability of a test compound to agonize or antagonize a calcium mobilization response in cells expressing capsaicin receptors to capsaicin or other vanilloid agonist, the EC50 of the agonist capsaicin is first determined. An additional 20 μl of KRH buffer and 1 μl DMSO is added to each well of cells, prepared as described above. 100 μl capsaicin in KRH buffer is automatically transferred by the FLIPR instrument to each well. Capsaicin-induced calcium mobilization is monitored using either FLUOROSKAN ASCENT (Labsystems; Franklin, Mass.) or FLIPR (fluorometric imaging plate reader system; Molecular Devices, Sunnyvale, Calif.) instruments. Data obtained between 30 and 60 seconds after agonist application are used to generate an 8-point concentration response curve, with final capsaicin concentrations of 1 nM to 3 μM. KALEIDAGRAPH software (Synergy Software, Reading, Pa.) is used to fit the data to the equation: y=a*(1/(1+(b/x)^c)) to determine the 50% excitatory concentration (EC50) for the response. In this equation, y is the maximum fluorescence signal, x is the concentration of the agonist or antagonist (in this case, capsaicin), a is the Emax, b corresponds to the EC50 value and c is the Hill coefficient. Determination of Agonist Activity
Test compounds are dissolved in DMSO, diluted in 20 μl KRH buffer so that the final concentration of test compounds in the assay well is between 1 μM and 5 μM, and added to cells prepared as described above. The 96 well plates containing prepared cells and test compounds are incubated in the dark, at room temperature for 0.5 to 6 hours. It is important that the incubation not continue beyond 6 hours. Just prior to determining the fluorescence response, 100 μl capsaicin in KRH buffer at twice the EC50 concentration determined as described above is automatically added by the FLIPR instrument to each well of the 96 well plate for a final sample volume of 200 μl and a final capsaicin concentration equal to the EC50. The final concentration of test compounds in the assay wells is between 1 μM and 5 μM. […] The concentration of antagonist required to provide a 50% decrease, relative to the response observed in the presence of capsaicin and without antagonist, is the IC50 for the antagonist, and is preferably below 1 micromolar, 100 nanomolar, 10 nanomolar or 1 nanomolar.

[1] = read-out: IC50 determined as described in Example 6

T1 sequence (Q8NER1 whole entry): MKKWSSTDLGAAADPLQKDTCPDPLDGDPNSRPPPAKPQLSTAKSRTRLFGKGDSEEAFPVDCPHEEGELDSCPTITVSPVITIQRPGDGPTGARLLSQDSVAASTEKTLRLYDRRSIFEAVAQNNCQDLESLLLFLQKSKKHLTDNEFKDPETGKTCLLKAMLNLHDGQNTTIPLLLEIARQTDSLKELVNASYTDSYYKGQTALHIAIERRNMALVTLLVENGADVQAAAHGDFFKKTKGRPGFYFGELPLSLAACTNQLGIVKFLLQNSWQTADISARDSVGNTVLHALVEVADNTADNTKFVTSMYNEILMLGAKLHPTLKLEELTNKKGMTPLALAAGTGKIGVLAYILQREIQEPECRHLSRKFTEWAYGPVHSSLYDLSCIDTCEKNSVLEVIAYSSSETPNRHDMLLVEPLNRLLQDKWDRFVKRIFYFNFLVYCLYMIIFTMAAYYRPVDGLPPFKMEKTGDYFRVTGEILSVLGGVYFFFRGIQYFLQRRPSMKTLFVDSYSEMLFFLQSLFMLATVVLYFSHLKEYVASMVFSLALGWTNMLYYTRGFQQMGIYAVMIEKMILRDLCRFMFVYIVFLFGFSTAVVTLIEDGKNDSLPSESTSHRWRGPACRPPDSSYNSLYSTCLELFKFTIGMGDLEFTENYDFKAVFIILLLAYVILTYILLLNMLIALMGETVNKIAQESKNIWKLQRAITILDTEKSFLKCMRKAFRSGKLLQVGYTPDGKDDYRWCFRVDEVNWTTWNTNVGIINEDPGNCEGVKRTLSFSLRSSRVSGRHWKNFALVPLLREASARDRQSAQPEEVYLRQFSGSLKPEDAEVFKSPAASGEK

| pIC50 [1] | pIC50 (read-out: IC50) | SMILES |
| --- | --- | --- |
| ≥ 7.00 |  | Cn1cnc2c(=O)n(-c3ccc(Br)cc3)c(Oc3ccc(F)c(F)c3F)nc21 [Compound 1, 1-(4-Bromophenyl)-9-methyl-2-(2,3,4-trifluorophenoxy)-1,9-dihydro-6H-purin-6-one] |
| ≥ 7.00 |  | Cn1cnc2c(=O)n(-c3ccc(Cl)nc3)c(Oc3cc(F)c(F)c(F)c3)nc21 [Compound 6, 1-(6-Chloropyridin-3-yl)-9-methyl-2-(3,4,5-trifluorophenoxy)-1H-purin-6(9H)-one] |
| ≥ 7.00 |  | Cn1cnc2c(=O)n(-c3ccc(C#N)nc3)c(Oc3cc(F)c(F)c(F)c3)nc21 [Compound 7, 5-(9-Methyl-6-oxo-2-(3,4,5-trifluorophenoxy)-6H-purin-1(9H)-yl)picolinonitrile] |
|  | ≥ 7.00 | Cn1cnc2c(=O)n(-c3ccc(Cl)cc3)c(Oc3c(F)cc(F)cc3F)nc21 [Compound 8, 1-(4-chlorophenyl)-9-methyl-2-(2,4,6-trifluorophenoxy)-1,9-dihydro-6H-purin-6-one] |
|  | ≥ 7.00 | CCn1cnc2c(=O)n(-c3ccc(F)cc3)c(Oc3c(F)cc(F)cc3F)nc21 [Compound 9, 9-ethyl-1-(4-fluorophenyl)-2-(2,4,6-trifluorophenoxy)-1,9-dihydro-6H-purin-6-one] |
|  | ≥ 7.00 | Cn1cnc2c(=O)n(-c3ccc(Cl)cc3)c(Oc3ccc(F)c(F)c3F)nc21 [Compound 10, 1-(4-chlorophenyl)-9-methyl-2-(2,3,4-trifluorophenoxy)-1,9-dihydro-6H-purin-6-one] |
|  | ≥ 7.00 | CCn1cnc2c(=O)n(-c3ccc(F)cc3)c(Oc3ccc(F)c(F)c3F)nc21 [Compound 11, 9-ethyl-1-(4-fluorophenyl)-2-(2,3,4-trifluorophenoxy)-1,9-dihydro-6H-purin-6-one] |
|  | ≥ 7.00 | Cn1cnc2c(=O)n(-c3ccc(F)cc3)c(Oc3c(F)cc(F)cc3F)nc21 [Compound 12, 1-(4-fluorophenyl)-9-methyl-2-(2,4,6-trifluorophenoxy)-1,9-dihydro-6H-purin-6-one] |
|  | ≥ 7.00 | Cn1cnc2c(=O)n(-c3ccc(F)cc3)c(Oc3cc(F)cc(F)c3F)nc21 [Compound 20, 1-(4-fluorophenyl)-9-methyl-2-(2,3,5-trifluorophenoxy)-1,9-dihydro-6H-purin-6-one] |
|  | ≥ 7.00 | Cn1cnc2c(=O)n(-c3ccc(Cl)cc3)c(Oc3cccc(F)c3F)nc21 [Compound 21, 1-(4-chlorophenyl)-2-(2,3-difluorophenoxy)-9-methyl-1,9-dihydro-6H-purin-6-one] |
|  | ≥ 7.00 | Cn1cnc2c(=O)n(-c3ccc(F)cc3)c(Oc3ccc(F)cc3Cl)nc21 [Compound 22, 2-(2-chloro-4-fluorophenoxy)-1-(4-fluorophenyl)-9-methyl-1,9-dihydro-6H-purin-6-one] |
|  | ≥ 7.00 | Cn1cnc2c(=O)n(-c3ccc(Cl)cc3)c(Oc3ccc(F)cc3Cl)nc21 [Compound 23, 2-(2-chloro-4-fluorophenoxy)-1-(4-chlorophenyl)-9-methyl-1,9-dihydro-6H-purin-6-one] |
|  | ≥ 7.00 | Cn1cnc2c(=O)n(-c3ccc(F)cc3)c(Oc3c(F)ccc(F)c3F)nc21 [Compound 24, 1-(4-fluorophenyl)-9-methyl-2-(2,3,6-trifluorophenoxy)-1,9-dihydro-6H-purin-6-one] |
|  | ≥ 7.00 | Cn1cnc2c(=O)n(-c3ccc(Cl)cc3)c(Oc3c(F)ccc(F)c3F)nc21 [Compound 25, 1-(4-chlorophenyl)-9-methyl-2-(2,3,6-trifluorophenoxy)-1,9-dihydro-6H-purin-6-one] |
|  | ≥ 7.00 | CCn1cnc2c(=O)n(-c3ccc(F)cc3)c(Oc3cc(F)cc(F)c3F)nc21 [Compound 26, 9-ethyl-1-(4-fluorophenyl)-2-(2,3,5-trifluorophenoxy)-1,9-dihydro-6H-purin-6-one] |
|  | ≥ 7.00 | Cn1cnc2c(=O)n(-c3ccc(Cl)cc3)c(Oc3cc(F)cc(F)c3F)nc21 [Compound 27, 1-(4-chlorophenyl)-9-methyl-2-(2,3,5-trifluorophenoxy)-1,9-dihydro-6H-purin-6-one] |
|  | ≥ 7.00 | Cn1cnc2c(=O)n(-c3ccc(Cl)cc3)c(Oc3ccc(C#N)c(F)c3F)nc21 [Compound 28, 4-{[1-(4-chlorophenyl)-9-methyl-6-oxo-6,9-dihydro-1H-purin-2-yl]oxy}-2,3-difluorobenzonitrile] |
|  | ≥ 7.00 | Cn1cnc2c(=O)n(-c3ccc(F)cc3)c(Oc3ccc(C#N)c(F)c3F)nc21 [Compound 29, 2,3-difluoro-4-{[1-(4-fluorophenyl)-9-methyl-6-oxo-6,9-dihydro-1H-purin-2-yl]oxy}benzonitrile] |
|  | ≥ 7.00 | Cn1cnc2c(=O)n(-c3ccc(Cl)cc3)c(Oc3cc(F)c(F)c(F)c3)nc21 [Compound 30, 1-(4-chlorophenyl)-9-methyl-2-(3,4,5-trifluorophenoxy)-1,9-dihydro-6H-purin-6-one] |
|  | ≥ 7.00 | O=c1c2ncccc2nc(Oc2ccc(F)cc2F)n1-c1ccc(F)cc1 [Compound 31, 2-(2,4-difluorophenoxy)-3-(4-fluorophenyl)pyrido[3,2-d]pyrimidin-4(3H)-one] |
|  | ≥ 7.00 | O=c1c2ncccc2nc(Oc2ccc(F)c(F)c2F)n1-c1ccc(F)cc1 [Compound 32, 3-(4-fluorophenyl)-2-(2,3,4-trifluorophenoxy)pyrido[3,2-d]pyrimidin-4(3H)-one] |
|  | ≥ 7.00 | O=c1c2ncsc2nc(Oc2ccc(F)c(F)c2F)n1-c1ccc(F)cc1 [Compound 33, 6-(4-fluorophenyl)-5-(2,3,4-trifluorophenoxy)[1,3]thiazolo[5,4-d]pyrimidin-7(6H)-one] |
|  | ≥ 7.00 | O=c1c2ncsc2nc(Oc2cccc(F)c2F)n1-c1ccc(F)cc1 [Compound 34, 5-(2,3-difluorophenoxy)-6-(4-fluorophenyl)[1,3]thiazolo[5,4-d]pyrimidin-7(6H)-one] |
|  | ≥ 7.00 | O=c1c2ncsc2nc(Oc2cc(F)c(F)cc2F)n1-c1ccc(F)cc1 [Compound 35, 6-(4-fluorophenyl)-5-(2,4,5-trifluorophenoxy)[1,3]thiazolo[5,4-d]pyrimidin-7(6H)-one] |
|  | ≥ 7.00 | O=c1c2ncsc2nc(Oc2cc(F)cc(F)c2F)n1-c1ccc(F)cc1 [Compound 36, 6-(4-fluorophenyl)-5-(2,3,5-trifluorophenoxy)[1,3]thiazolo[5,4-d]pyrimidin-7(6H)-one] |
|  | ≥ 7.00 | O=c1c2ncsc2nc(Oc2cc(F)c(F)c(F)c2)n1-c1ccc(F)cc1 [Compound 37, 6-(4-fluorophenyl)-5-(3,4,5-trifluorophenoxy)[1,3]thiazolo[5,4-d]pyrimidin-7(6H)-one] |
|  | ≥ 7.00 | O=c1c2ncsc2nc(Oc2ccc(Cl)cc2F)n1-c1ccc(F)cc1 [Compound 38, 5-(4-chloro-2-fluorophenoxy)-6-(4-fluorophenyl)[1,3]thiazolo[5,4-d]pyrimidin-7(6H)-one] |
|  | ≥ 7.00 | Cn1cnc2c(=O)n(-c3ccc(Cl)cc3)c(Oc3cccc(C(F)(F)F)c3F)nc21 [Compound 42, 1-(4-chlorophenyl)-2-[2-fluoro-3-(trifluoromethyl)phenoxy]-9-methyl-1,9-dihydro-6H-purin-6-one] |
|  | ≥ 7.00 | Cn1cnc2c(=O)n(-c3ccc(F)cc3)c(Oc3cccc(C(F)(F)F)c3F)nc21 [Compound 43, 1-(4-fluorophenyl)-2-[2-fluoro-3-(trifluoromethyl)phenoxy]-9-methyl-1,9-dihydro-6H-purin-6-one] |
|  | ≥ 7.00 | O=c1c2ncsc2nc(Oc2cc(F)cc(C(F)(F)F)c2)n1-c1ccc(F)cc1 [Compound 44, 6-(4-fluorophenyl)-5-[3-fluoro-5-(trifluoromethyl)phenoxy][1,3]thiazolo[5,4-d]pyrimidin-7(6H)-one] |
